# Results from US4863941A, “Glycerol derivatives” (Hoffmann-La Roche Inc., priority 1985, dated 1989).
# System: aggregation of the blood platelets brought about by PAF
# Test: inhibition of PAF-triggered platelet aggregation in platelet-rich plasma (PRP), aggregometer
# Type: cell-based
# Details: Oryctolagus cuniculus, rabbit PRP, 37° C., sub-maximum dosage of PAF (4 nM), test substance added 2 minutes before PAF
# Experimental: Platelet-rich plasma (PRP) is prepared by centrifugation of rabbit blood containing 1/10 volumes of 90 mM trisodium citrate. The aggregation of the blood platelets is measured with the aid of an aggregometer at 37° C. while stirring. 2 minutes after the addition of the test sub- stance to the PRP the platelet aggregation is triggered off by a sub-maximum dosage of PAF (4 nM). The IC50 value (μM) given in the following Table corresponds to that concentration of the test substance which reduces to a half the aggregation of the blood platelets brought about by PAF.
row,SMILES,IC50
1,"CCCCCCCCCCCCCCCCCCOCC(COC(=O)OCC[N+]1(C)CCCCC1)OC (racemic) [Example 3, 1-[2-[[[(RS)-2-methoxy-3-(octadecyloxy)propoxy]carbonyl]oxy]ethyl]-1-methylpiperidinium chloride]",4000 nM
2,"CCCCCCCCCCCCCCCCCCNC(=O)N(CC(COCCCCn1cc[n+](C)c1)OC(=O)NC)C(C)C (racemic) [Example 8, 1-[4-[(RS)-3-(1-isopropyl-3-octadecylureido)-2-[(methylcarbamoyl)oxy]propoxy]butyl]-3-methylimidazolium bromide]",400 nM
3,"CCCCCCCCCCCCCCCCCC(=O)OCC(COC(=O)CCC[N+](C)(C)C)NC(C)=O (racemic) [Example 1, [3-[[(RS)-2-acetamido-3-[octadecanoyloxy]propoxy]carbonyl]propyl]trimethylammonium chloride]",5500 nM
4,"CCCCCCCCCCCCCCCCCCOC(=O)NCC(COC(=O)CCC[N+](C)(C)C)OC(=O)NC (racemic) [Example 4, [3-[[(RS)-2-Methylcarbamoyloxy-3-[1-(octadecyloxy)formamido]propoxy]carbonyl]propyl]trimethylammonium chloride]",1800 nM
5,"CCCCCCCCCCCCCCCCCCNC(=O)OCC(COC(=O)CCC[N+](C)(C)C)NC(=O)OC (racemic) [Example 2, [3-[[(RS)-2-(1-methoxyformamido)-3-(octadecylcarbamoyloxy)propoxy]carbonyl]propyl]trimethylammonium chloride]",1800 nM
6,"CCCCCCCCCCCCCCCCCCOC(=O)N(CC(COCCCC[N+](C)(C)C)OC(=O)NC)C(C)C (racemic) [Example 6, [4-[(RS)-3-[N-isopropyl(1-octadecyloxy)formamido]-2-[(methylcarbamoyl)oxy]propoxy]butyl]trimethylammonium bromide]",500 nM
7,"CCCCCCCCCCCCCCCCCCNC(=O)N(CC(COCCCC[n+]1ccsc1)OC(=O)NC)C(C)C (racemic) [Example 7, 3-[4-[(RS)-3-(1-isopropyl-3-octadecylureido)-2-[(methylcarbamoyl)oxy]propoxy]butyl]thiazolium bromide]",50 nM
8,"CCCCCCCCCCCCCCCCCCOC(=O)N(CC(COCCCC[n+]1ccsc1)OC(=O)NC)C(C)C (racemic) [Example 5, 3-[4-[(RS)-3-[N-isopropyl-1-(octadecyloxy)formamido]-2-[(methylcarbamoyl)oxy]-propoxy]butyl]thiazolium bromide]",40 nM
9,"CCCCCCCCCCCCCCCCCCOC(=O)N(CC(COCCCC[n+]1ccsc1)OC(=O)OC)C(C)C (racemic) [Example 9, 3-[4-(RS)-3-(N-isopropyl-1-octadecyloxyformamido)-2-(methoxycarbonyloxy)propoxy]butyl]thiazolium bromide]",60 nM
